Measurements: patent US12492193B2, “Pyrazole derivatives for the treatment of cystic fibrosis” (Fondazione Istituto Italiano Di Tecnologia, priority 2017, dated 2025)

Target: T1, mutant CFTR (Homo sapiens, UniProt P13569, DEL508-508)
T1 construct: expressed in transfected cells
Experiment: Fluorescence (HS-YFP) assay for CFTR activity, corrector assay
Format: cell-based
Conditions: CFBE41o- and FRT cells with stable expression of mutant CFTR, 24 h compound treatment
Experimental: Fluorescence Assay for CFTR Activity
Mutant CFTR activity was determined with the functional assay based on the halide-sensitive yellow fluorescent protein, HS-YFP (Galietta et al., FEBS Lett 499: 220-224, 2001). CFBE41o- and FRT cells with stable expression of mutant CFTR and HS-YFP were plated on clear-bottom 96-well black microplates (Code 3603, Corning Life Sciences) at a density of 50,000 cells/well and kept at 37° C. in 5% CO2 for 24 hours. For the corrector assay, cells were treated for further 24 hours with test compounds, vehicle (DMSO), or the positive control VX-809. After treatment, the culture medium was removed and cells in each well were stimulated for 30 min at 37° C. with 60 μL PBS (containing 137 mM NaCl, 2.7 mM KCl, 8.1 mM Na2HPO4, 1.5 mM KH2PO4, 1 mM CaCl2, and 0.5 mM MgCl2) plus forskolin (20 μM) and genistein (50 μM).
For determination of potentiator activity on G551D-CFTR or G1349D-CFTR, cells were directly stimulated with forskolin plus test compound without previous incubation at low temperature. At the time of assay, microplates carrying CFBE41o- or FRT cells were transferred to microplate readers (BMG Labtech) equipped with high-quality excitation (HQ500/20X: 500±10 nm) and emission (HQ535/30M: 535±15 nm) filters for YFP (Chroma Technology). The assay consisted of a continuous 14 s fluorescence reading with 2 s before and 12 s after injection of an iodide-containing solution (165 μL of a modified PBS containing I^− instead of Cl^−; final I^− concentration in the well: 100 mM). Data were normalized to the initial background-subtracted fluorescence. Enhanced CFTR activity, induced by correctors and/or potentiators, results in accelerated I^− influx that in turn causes faster HS-YFP quenching (Pedemonte et al., Mol Pharmacol 68:1736-1746, 2005; Pedemonte et al., J Clin Invest 115:2564-2571, […]). To determine fluorescence quenching rate associated with I^− influx, the […] 10 s of data for each well were fitted with an exponential function to extrapolate initial slope (dF/dt).
EC50 obtained are illustrated in table 1 wherein +: EC50>2 μM; ++: 1.0 μM<EC50<2 μM; +++: EC50<1 μM.

T1 sequence (P13569 with tags, fused parts or gaps DEL508-508): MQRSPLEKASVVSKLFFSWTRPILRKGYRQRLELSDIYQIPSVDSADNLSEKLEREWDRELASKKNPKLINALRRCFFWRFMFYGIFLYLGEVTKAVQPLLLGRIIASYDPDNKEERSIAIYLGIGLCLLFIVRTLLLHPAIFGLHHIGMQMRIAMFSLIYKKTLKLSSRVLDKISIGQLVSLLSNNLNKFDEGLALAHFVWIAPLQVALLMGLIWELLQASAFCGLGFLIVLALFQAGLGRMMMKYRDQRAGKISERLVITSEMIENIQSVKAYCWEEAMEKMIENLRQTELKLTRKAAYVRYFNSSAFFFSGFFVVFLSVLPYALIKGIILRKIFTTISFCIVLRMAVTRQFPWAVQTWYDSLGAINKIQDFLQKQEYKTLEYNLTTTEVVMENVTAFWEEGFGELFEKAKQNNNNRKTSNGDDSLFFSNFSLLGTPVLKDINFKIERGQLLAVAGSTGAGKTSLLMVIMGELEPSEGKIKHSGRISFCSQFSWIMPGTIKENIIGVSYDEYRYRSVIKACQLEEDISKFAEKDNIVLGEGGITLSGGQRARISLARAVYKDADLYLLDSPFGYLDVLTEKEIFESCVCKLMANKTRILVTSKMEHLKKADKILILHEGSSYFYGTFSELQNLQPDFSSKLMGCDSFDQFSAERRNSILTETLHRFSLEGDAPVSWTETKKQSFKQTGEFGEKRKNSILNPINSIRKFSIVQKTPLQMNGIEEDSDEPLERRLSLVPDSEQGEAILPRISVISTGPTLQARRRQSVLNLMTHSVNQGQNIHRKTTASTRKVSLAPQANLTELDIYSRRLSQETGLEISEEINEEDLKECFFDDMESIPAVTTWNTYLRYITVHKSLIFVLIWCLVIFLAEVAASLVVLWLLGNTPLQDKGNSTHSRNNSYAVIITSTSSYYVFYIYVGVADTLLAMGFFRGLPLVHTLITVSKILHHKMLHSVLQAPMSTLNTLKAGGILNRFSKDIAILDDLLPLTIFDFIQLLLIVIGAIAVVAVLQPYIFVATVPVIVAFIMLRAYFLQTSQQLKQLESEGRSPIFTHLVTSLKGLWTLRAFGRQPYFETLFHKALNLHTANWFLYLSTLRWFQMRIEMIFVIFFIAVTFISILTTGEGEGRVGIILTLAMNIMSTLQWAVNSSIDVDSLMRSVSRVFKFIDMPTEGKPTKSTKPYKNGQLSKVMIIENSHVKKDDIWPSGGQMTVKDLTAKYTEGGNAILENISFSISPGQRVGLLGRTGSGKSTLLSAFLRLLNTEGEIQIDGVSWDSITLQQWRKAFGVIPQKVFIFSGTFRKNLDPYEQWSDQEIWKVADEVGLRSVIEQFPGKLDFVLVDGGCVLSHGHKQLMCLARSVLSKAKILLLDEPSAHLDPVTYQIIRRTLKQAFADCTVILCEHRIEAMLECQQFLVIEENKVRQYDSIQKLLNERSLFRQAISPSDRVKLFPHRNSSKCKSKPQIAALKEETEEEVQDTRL

Row | SMILES | EC50
1 | CN(C(=O)c1cccc(-n2nc(C(F)(F)F)cc2OC2CCC(C(=O)O)CC2)c1)c1ccc2c(c1)OCO2 (mixture of isomers) [compound 215, 4-[2-[3-[1,3-benzodioxol-5-yl(methyl)carbamoyl]phenyl]-5-(trifluoromethyl)pyrazol-3-yl]oxycyclohexane carboxylic acid] | < 1000 nM
2 | Cc1nn(-c2cccc(C(=O)N(C)c3ccc4c(c3)OCO4)c2)c([C@H](O)c2ccccc2)c1Cl (racemic) [compound 109, N-(1,3-benzodioxol-5-yl)-3-[4-chloro-5-[(rac)-hydroxy(phenyl)methyl]-3-methyl-pyrazol-1-yl]-N-methyl-benzamide] | < 1000 nM
3 | Cc1nn(-c2cccc(C(=O)N(C)c3ccc4c(c3)OCO4)c2)c([C@@H](C)O)c1Cl (racemic) [compound 114, N-(1,3-benzodioxol-5-yl)-3-[4-chloro-5-[(rac)-1-hydroxyethyl]-3-methyl-pyrazol-1-yl]-N-methyl-benzamide] | > 2000 nM
4 | CO[C@H](c1ccccc1)c1c(Cl)c(C)nn1-c1cccc(C(=O)N(C)c2ccc3c(c2)OCO3)c1 (racemic) [compound 117, N-(1,3-Benzodioxol-5-yl)-3-[4-chloro-5-[(rac)-methoxy (phenyl)methyl]-3-methyl-pyrazol-1-yl]-N-methyl-benzamide] | < 1000 nM
5 | Cc1nn(-c2cccc(C(=O)Nc3ccc4c(c3)OC(F)(F)C(F)(F)O4)c2)c(C)c1Cl [Int-005, 3-(4-Chloro-3,5-dimethyl-pyrazol-1-yl)-N-(2,2,3,3-tetrafluoro-1,4-benzodioxin-6-yl)benzamide] | > 2000 nM
6 | Cc1nn(-c2cccc(C(=O)Nc3ccc4c(c3)OC(F)(F)O4)c2)c(C)c1Cl [Int-006, 3-(4-Chloro-3,5-dimethyl-pyrazol-1-yl)-N-(2,2-difluoro-1,3-benzodioxol-5-yl)benzamide] | > 2000 nM
7 | COc1ccc(NC(=O)c2cccc(-n3nc(C)c(Cl)c3C)c2)cc1OC [Int-013, 3-(4-Chloro-3,5-dimethyl-pyrazol-1-yl)-N-(3,4-dimethoxyphenyl)benzamide] | > 2000 nM
8 | Cc1nn(-c2cccc(C(=O)Nc3ccc4c(c3)NCCO4)c2)c(C)c1Cl [Int-016, 3-(4-Chloro-3,5-dimethyl-pyrazol-1-yl)-N-(3,4-dihydro-2H-1,4-benzoxazin-6-yl)benzamide] | > 2000 nM
9 | Cc1nn(-c2cccc(C(=O)Nc3cccc4c3OC(F)(F)O4)c2)c(C)c1Cl [Int-022, 3-(4-Chloro-3,5-dimethyl-pyrazol-1-yl)-N-(2,2-difluoro-1,3-benzodioxol-4-yl)benzamide] | 1000 to 2000 nM
10 | Cc1nn(-c2cccc(C(=O)Nc3ccc4c(c3)CCCC4)c2)c(C)c1Cl [Int-040] | > 2000 nM
11 | Cc1nn(-c2cccc(C(=O)Nc3ccc4oc(C5CC5)nc4c3)c2)c(C)c1Cl [Int-053, 3-(4-Chloro-3,5-dimethyl-pyrazol-1-yl)-N-(2-cyclopropyl-1,3-benzoxazol-5-yl)benzamide] | > 2000 nM
12 | Cc1nn(-c2cccc(C(=O)Nc3ccc4oc(C(C)C)nc4c3)c2)c(C)c1Cl [Int-061, 3-(4-Chloro-3,5-dimethyl-pyrazol-1-yl)-N-(2-isopropyl-1,3-benzoxazol-5-yl)benzamide] | > 2000 nM
13 | COc1nc2cc(NC(=O)c3cccc(-n4nc(C)c(Cl)c4C)c3)ccc2o1 [Int-063, 3-(4-Chloro-3,5-dimethyl-pyrazol-1-yl)-N-(2-methoxy-1,3-benzoxazol-5-yl)benzamide] | > 2000 nM
14 | Cc1c(Cl)c(C(F)(F)F)nn1-c1cccc(C(=O)Nc2ccc3cn(C)nc3c2)c1 [Int-121, 3-[4-Chloro-5-methyl-3-(trifluoromethyl)pyrazol-1-yl]-N-(2-methylindazol-6-yl)benzamide] | > 2000 nM
15 | Cc1nc2ccc(NC(=O)c3cccc(-n4nc(C(F)(F)F)c(Cl)c4C4CC4)c3)cc2o1 [Int-136, 3-[4-Chloro-5-cyclopropyl-3-(trifluoromethyl)pyrazol-1-yl]-N-(2-methyl-1,3-benzoxazol-6-yl)benzamide] | < 1000 nM
16 | Cc1nc2ccc(NC(=O)c3cccc(-n4nc(C(F)(F)F)c(Cl)c4C)c3)cc2s1 [Int-148, 3-[4-Chloro-5-methyl-3-(trifluoromethyl)pyrazol-1-yl]-N-(2-methyl-1,3-benzothiazol-6-yl)benzamide] | < 1000 nM
17 | Cc1nc2cc(F)c(NC(=O)c3cccc(-n4nc(C(F)(F)F)c(Cl)c4C)c3)cc2o1 [Int-153, 3-[4-Chloro-5-methyl-3-(trifluoromethyl)pyrazol-1-yl]-N-(5-fluoro-2-methyl-1,3-benzoxazol-6-yl)benzamide] | < 1000 nM
18 | CC(C)(C)OC(=O)c1ccc(OCc2c(Cl)c(C(F)(F)F)nn2-c2cccc(C(=O)Nc3ccc4c(c3)OC(F)(F)O4)c2)cc1 [Int-172, Tert-butyl 4-[[4-chloro-2-[3-[(2,2-difluoro-1,3-benzodioxol-5-yl)carbamoyl]phenyl]-5-(trifluoromethyl)pyrazol-3-yl]methoxy]benzoate] | > 2000 nM
19 | Cc1c(Cl)c(C(F)(F)F)nn1-c1cccc(C(=O)Nc2ccc3c(c2C=O)OCO3)c1 [Int-203, 3-[4-chloro-5-methyl-3-(trifluoromethyl)pyrazol-1-yl]-N-(4-formyl-1,3-benzodioxol-5-yl)benzamide] | > 2000 nM

Continued, values first:

Row | EC50 | SMILES
20 | > 2000 nM | Cc1nn(-c2cccc(C(=O)Nc3ccc4c(c3)OCCO4)c2)c(C)c1Cl [Int-002, 3-(4-Chloro-3,5-dimethyl-pyrazol-1-yl)-N-(2,3-dihydro-1,4-benzodioxin-6-yl)benzamide]
21 | > 2000 nM | Cc1nn(-c2cccc(C(=O)Nc3ccc4c(c3)OCO4)c2)c(C)c1Cl [Int-012, N-(1,3-Benzodioxol-5-yl)-3-(4-chloro-3,5-dimethyl-pyrazol-1-yl)benzamide]
22 | > 2000 nM | Cc1nn(-c2cccc(C(=O)Nc3ccc4c(c3)OCCN4)c2)c(C)c1Cl [Int-018, 3-(4-chloro-3,5-dimethyl-pyrazol-1-yl)-N-(3,4-dihydro-2H-1,4-benzoxazin-7-yl)benzamide]
23 | > 2000 nM | Cc1cc2c(cc1NC(=O)c1cccc(-n3nc(C)c(Cl)c3C)c1)OCO2 [Int-041, 3-(4-Chloro-3,5-dimethyl-pyrazol-1-yl)-N-(6-methyl-1,3-benzodioxol-5-yl)benzamide]
24 | > 2000 nM | Cc1nc2ccc(NC(=O)c3cccc(-n4nc(C)c(Cl)c4C)c3)cc2o1 [Int-045, 3-(4-Chloro-3,5-dimethyl-pyrazol-1-yl)-N-(2-methyl-1,3-benzoxazol-6-yl)benzamide]
25 | > 2000 nM | Cc1nn(-c2cccc(C(=O)Nc3ccc4c(c3)COC4)c2)c(C)c1Cl [Int-051]
26 | > 2000 nM | Cc1nn(-c2cccc(C(=O)Nc3ccc4c(c3)CCO4)c2)c(C)c1Cl [Int-052]
27 | > 2000 nM | Cc1c(Cl)c(C(F)(F)F)nn1-c1cccc(C(=O)Nc2cc3c(cc2C=O)OCO3)c1 [Int-160, 3-[4-chloro-5-methyl-3-(trifluoromethyl)pyrazol-1-yl]-N-(6-formyl-1,3-benzodioxol-5-yl)benzamide]
28 | < 1000 nM | Cc1c(Cl)c(C(F)(F)F)nn1-c1cccc(C(=O)Nc2cc3c(cc2CO)OCO3)c1 [Int-167, 3-[4-chloro-5-methyl-3-(trifluoromethyl)pyrazol-1-yl]-N-[6-(hydroxymethyl)-1,3-benzodioxol-5-yl]benzamide]
29 | > 2000 nM | Cc1c(Cl)c(C(F)(F)F)nn1-c1cccc(C(=O)Nc2cc3c(cc2C(=O)O)OCO3)c1 [Int-178, 6-[[3-[4-chloro-5-methyl-3-(trifluoromethyl)pyrazol-1-yl]benzoyl]amino]-1,3-benzodioxole-5-carboxylic acid]
